Measured values published in patent US20220389007A1, “INHIBITORS OF HUMAN IMMUNODEFICIENCY VIRUS REPLICATION” (VIIV HEALTHCARE UK (No. 5) LIMITED, priority 2019, published 2022).

Assays:
recombinant NL4-3 virus = assay: HIV cell culture assay (antiviral activity, luciferase readout); format: cell-based; settings: Human immunodeficiency virus 1, NL43, MT2, MT-2 cells infected for 4-5 days with recombinant NL4-3 virus carrying Renilla luciferase
Summary of the method: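 MT-2 cells infected for 4-5 days with NL4-3 reference virus carrying Renilla luciferase in place of part of nef, in presence of serial compound dilutions. Luciferase read with live-cell substrate; EC50 from median effect equation fit.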

[1] = Compound cytotoxicity, XTT-based colorimetric assay; format: cell-based; settings: human; uninfected MT2 cells, day 4, XTT assay
Summary of the method: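 Run under the antiviral-assay protocol but without virus. Viability was read on day 4 and CC50 values were derived from the readout.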

| SMILES | EC50 (recombinant NL4-3 virus) [nM] | CC50 at 4 day [1] [nM] |
| --- | --- | --- |
| Cc1cc(-c2ccc3c(=O)n(-c4ccc(Cl)c5c(NS(C)(=O)=O)nn(C)c45)c([C@H](Cc4cc(F)cc(F)c4)NC(=O)Cn4nc(C(F)F)c5c4C(F)(F)[C@@H]4C[C@H]54)nc3n2)nn1CC(C)(F)F (single isomer, unassigned) [Example 96] | 0.044 | > 100 |
| COc1ccnc(-c2ccc3c(=O)n(-c4ccc(Cl)c5c(NS(C)(=O)=O)nn(C)c45)c([C@H](Cc4cc(F)cc(F)c4)NC(=O)Cn4nc(C(F)F)c5c4C(F)(F)[C@@H]4C[C@H]54)nc3n2)n1 (atropisomer, axis not shown; (P)) [Example 56, N-((S)-1-((3P)-3-(4-chloro-1-methyl-3-(methylsulfonamido)-1H-indazol-7-yl)-7-(4-methoxypyrimidin-2-yl)-4-oxo-3,4-dihydropyrido[2,3-d]pyrimidin-2-yl)-2-(3,5-difluorophenyl)ethyl)-2-((3bS,4aR)-3-(difluoromethyl)-5,5-difluoro-3b,4,4a,5-tetrahydro-1H-cyclopropa[3,4]cyclopenta[1,2-c]pyrazol-1-yl)acetamide] | 0.051 | > 100 |
| COc1cncc(-c2ccc3c(=O)n(-c4ccc(Cl)c5c(NS(C)(=O)=O)nn(C)c45)c([C@H](Cc4cc(F)cc(F)c4)NC(=O)Cn4nc(C(F)F)c5c4C(F)(F)[C@@H]4C[C@H]54)nc3n2)c1 (atropisomer, axis not shown; (P)) [Example 51, N-((S)-1-((3P)-3-(4-chloro-1-methyl-3-(methylsulfonamido)-1H-indazol-7-yl)-7-(5-methoxypyridin-3-yl)-4-oxo-3,4-dihydropyrido[2,3-d]pyrimidin-2-yl)-2-(3,5-difluorophenyl)ethyl)-2-((3bS,4aR)-3-(difluoromethyl)-5,5-difluoro-3b,4,4a,5-tetrahydro-1H-cyclopropa[3,4]cyclopenta[1,2-c]pyrazol-1-yl)acetamide] | 0.085 | > 100 |
| Cn1nc(NS(C)(=O)=O)c2c(Cl)ccc(-n3c([C@H](Cc4cc(F)cc(F)c4)NC(=O)Cn4nc(C(F)F)c5c4C(F)(F)[C@@H]4C[C@H]54)nc4nc(-c5ncc(Cl)nc5Cl)ccc4c3=O)c21 (atropisomer, axis not shown; (P)) [Example 57, N-((S)-1-((3P)-3-(4-chloro-1-methyl-3-(methylsulfonamido)-1H-indazol-7-yl)-7-(3,5-dichloropyrazin-2-yl)-4-oxo-3,4-dihydropyrido[2,3-d]pyrimidin-2-yl)-2-(3,5-difluorophenyl)ethyl)-2-((3bS,4aR)-3-(difluoromethyl)-5,5-difluoro-3b,4,4a,5-tetrahydro-1H-cyclopropa[3,4]cyclopenta[1,2-c]pyrazol-1-yl)acetamide] | 0.073 | > 100 |
| Cc1nccnc1-c1ccc2c(=O)n(-c3ccc(Cl)c4c(NS(C)(=O)=O)nn(C)c34)c([C@H](Cc3cc(F)cc(F)c3)NC(=O)Cn3nc(C(F)F)c4c3C(F)(F)[C@@H]3C[C@H]43)nc2n1 (atropisomer, axis not shown; (P)) [Example 7, N-((S)-1-((3P)-3-(4-chloro-1-methyl-3-(methylsulfonamido)-1H-indazol-7-yl)-7-(3-methylpyrazin-2-yl)-4-oxo-3,4-dihydropyrido[2,3-d]pyrimidin-2-yl)-2-(3,5-difluorophenyl)ethyl)-2-((3bS,4aR)-3-(difluoromethyl)-5,5-difluoro-3b,4,4a,5-tetrahydro-1H-cyclopropa[3,4]cyclopenta[1,2-c]pyrazol-1-yl)acetamide] | 0.02 | > 100 |
| COc1ncc(-c2ccc3c(=O)n(-c4ccc(Cl)c5c(NS(C)(=O)=O)nn(C)c45)c([C@H](Cc4cc(F)cc(F)c4)NC(=O)Cn4nc(C(F)F)c5c4C(F)(F)[C@@H]4C[C@H]54)nc3n2)s1 (atropisomer, axis not shown; (P)) [Example 82, N-((S)-1-((3P)-3-(4-chloro-1-methyl-3-(methylsulfonamido)-1H-indazol-7-yl)-7-(2-methoxythiazol-5-yl)-4-oxo-3,4-dihydropyrido[2,3-d]pyrimidin-2-yl)-2-(3,5-difluorophenyl)ethyl)-2-((3bS,4aR)-3-(difluoromethyl)-5,5-difluoro-3b,4,4a,5-tetrahydro-1H-cyclopropa[3,4]cyclopenta[1,2-c]pyrazol-1-yl)acetamide] | 0.069 | > 100 |
| Cn1nc(NS(C)(=O)=O)c2c(Cl)ccc(-n3c([C@H](Cc4cc(F)cc(F)c4)NC(=O)Cn4nc(C(F)F)c5c4C(F)(F)[C@@H]4C[C@H]54)nc4nc(-c5cc(C(F)(F)F)[nH]n5)ccc4c3=O)c21 (atropisomer, axis not shown; (P)) [Example 90, N-((S)-1-((3P)-3-(4-chloro-1-methyl-3-(methylsulfonamido)-1H-indazol-7-yl)-4-oxo-7-(5-(trifluoromethyl)-1H-pyrazol-3-yl)-3,4-dihydropyrido[2,3-d]pyrimidin-2-yl)-2-(3,5-difluorophenyl)ethyl)-2-((3bS,4aR)-3-(difluoromethyl)-5,5-difluoro-3b,4,4a,5-tetrahydro-1H-cyclopropa[3,4]cyclopenta[1,2-c]pyrazol-1-yl)acetamide] | 0.098 | > 100 |
| Cn1nc(NS(C)(=O)=O)c2c(Cl)ccc(-n3c([C@H](Cc4cc(F)cc(F)c4)NC(=O)Cn4nc(C(F)F)c5c4C(F)(F)[C@@H]4C[C@H]54)nc4ncc(-c5cccc(C(F)(F)F)n5)cc4c3=O)c21 (atropisomer, axis not shown; (P)) [Example 1, N-((S)-1-((3P)-3-(4-chloro-1-methyl-3-(methylsulfonamido)-1H-indazol-7-yl)-4-oxo-6-(6-(trifluoromethyl)pyridin-2-yl)-3,4-dihydropyrido[2,3-d]pyrimidin-2-yl)-2-(3,5-difluorophenyl)ethyl)-2-((3bS,4aR)-3-(difluoromethyl)-5,5-difluoro-3b,4,4a,5-tetrahydro-1H-cyclopropa[3,4]cyclopenta[1,2-c]pyrazol-1-yl)acetamide] | 0.055 | > 100 |
| Cn1nc(NS(C)(=O)=O)c2c(Cl)ccc(-n3c([C@H](Cc4cc(F)cc(F)c4)NC(=O)Cn4nc(C(F)F)c5c4C(F)(F)[C@@H]4C[C@H]54)nc4nc(-c5ccn(CCC(F)(F)F)n5)ccc4c3=O)c21 (atropisomer, axis not shown; (P)) [Example 89, N-((S)-1-((3P)-3-(4-chloro-1-methyl-3-(methylsulfonamido)-1H-indazol-7-yl)-4-oxo-7-(1-(3,3,3-trifluoropropyl)-1H-pyrazol-3-yl)-3,4-dihydropyrido[2,3-d]pyrimidin-2-yl)-2-(3,5-difluorophenyl)ethyl)-2-((3bS,4aR)-3-(difluoromethyl)-5,5-difluoro-3b,4,4a,5-tetrahydro-1H-cyclopropa[3,4]cyclopenta[1,2-c]pyrazol-1-yl)acetamide] | 0.056 | > 100 |
| Cn1nc(NS(C)(=O)=O)c2c(Cl)ccc(-n3c([C@H](Cc4cc(F)cc(F)c4)NC(=O)Cn4nc(C(F)F)c5c4C(F)(F)[C@@H]4C[C@H]54)nc4nc(-c5cccc(C(F)F)c5)ccc4c3=O)c21 (atropisomer, axis not shown; (P)) [Example 23, N-((S)-1-((3P)-3-(4-chloro-1-methyl-3-(methylsulfonamido)-1H-indazol-7-yl)-7-(3-(difluoromethyl)phenyl)-4-oxo-3,4-dihydropyrido[2,3-d]pyrimidin-2-yl)-2-(3,5-difluorophenyl)ethyl)-2-((3bS,4aR)-3-(difluoromethyl)-5,5-difluoro-3b,4,4a,5-tetrahydro-1H-cyclopropa[3,4]cyclopenta[1,2-c]pyrazol-1-yl)acetamide] | 0.11 | > 100 |
| Cn1nc(NS(C)(=O)=O)c2c(Cl)ccc(-n3c([C@H](Cc4cc(F)cc(F)c4)NC(=O)Cn4nc(C(F)F)c5c4C(F)(F)[C@@H]4C[C@H]54)nc4nc(-c5ccn(CC(F)(F)F)n5)ccc4c3=O)c21 (atropisomer, axis not shown; (P)) [Example 73, N-((S)-1-((3P)-3-(4-chloro-1-methyl-3-(methylsulfonamido)-1H-indazol-7-yl)-4-oxo-7-(1-(2,2,2-trifluoroethyl)-1H-pyrazol-3-yl)-3,4-dihydropyrido[2,3-d]pyrimidin-2-yl)-2-(3,5-difluorophenyl)ethyl)-2-((3bS,4aR)-3-(difluoromethyl)-5,5-difluoro-3b,4,4a,5-tetrahydro-1H-cyclopropa[3,4]cyclopenta[1,2-c]pyrazol-1-yl)acetamide] | 0.029 | > 100 |
| Cn1nc(NS(C)(=O)=O)c2c(Cl)ccc(-n3c([C@H](Cc4cc(F)cc(F)c4)NC(=O)Cn4nc(C(F)F)c5c4C(F)(F)[C@@H]4C[C@H]54)nc4nc(-c5ccc6ncsc6c5)ccc4c3=O)c21 (atropisomer, axis not shown; (P)) [Example 71, N-((S)-1-(7-(benzo[d]thiazol-6-yl)-(3P)-3-(4-chloro-1-methyl-3-(methylsulfonamido)-1H-indazol-7-yl)-4-oxo-3,4-dihydropyrido[2,3-d]pyrimidin-2-yl)-2-(3,5-difluorophenyl)ethyl)-2-((3bS,4aR)-3-(difluoromethyl)-5,5-difluoro-3b,4,4a,5-tetrahydro-1H-cyclopropa[3,4]cyclopenta[1,2-c]pyrazol-1-yl)acetamide] | 0.097 | > 100 |
| Cn1nc(NS(C)(=O)=O)c2c(Cl)ccc(-n3c([C@H](Cc4cc(F)cc(F)c4)NC(=O)Cn4nc(C(F)F)c5c4C(F)(F)[C@@H]4C[C@H]54)nc4nc(-c5cccc(OC(F)(F)F)c5)ccc4c3=O)c21 (atropisomer, axis not shown; (P)) [Example 21, N-((S)-1-((3P)-3-(4-chloro-1-methyl-3-(methylsulfonamido)-1H-indazol-7-yl)-4-oxo-7-(3-(trifluoromethoxy)phenyl)-3,4-dihydropyrido[2,3-d]pyrimidin-2-yl)-2-(3,5-difluorophenyl)ethyl)-2-((3bS,4aR)-3-(difluoromethyl)-5,5-difluoro-3b,4,4a,5-tetrahydro-1H-cyclopropa[3,4]cyclopenta[1,2-c]pyrazol-1-yl)acetamide] | 0.39 | > 100 |
